Results taken from patent US20230295162A1 (EÖTVÖS LORÁND TUDOMÁNYEGYETEM, priority 2020, published 2023).

What was measured:
[1] = system: Panc1 pancreatic cancer cell line; assay: CellTiter-Glo IC50 (Example 19); format: cell-based; settings: Homo sapiens, PANC-1, 72 h
Protocol: Some representative imipridones and ONC212 as reference were further tested on the following human malignant cell lines: PC3 and LNCap (prostate carcinoma); BxPC3, MiaPaCa2 and Panc1 (pancreatic cancer); A549, HCC827, H1993 and H520 (lung carcinoma); MDA-MB-453 and MDA-MB-231 (breast cancer) (see Table 2 and FIGS. 1-11).
(§1) Cell lines were maintained according to the instructions provided by ATCC (https://www.lgcstandards-atcc.org/) in a 5% CO2 humidified incubator maintained at 37° C. temperature. Effects of compounds on cell viability were measured via CellTiter-Glo® luminescent cell viability assay (Promega, Madison, WI, USA) Cells were plated at 1000 cells/well onto a flat-bottomed, white 96 well plate (BRANDplates, cat. no.: 781965). […] After the treatment, medium was removed and CellTiter-Glo® reagent was added. The luminescence signal was recorded using a microplate reader (BioTek Synergy 2 Multi-Mode Reader, BioTek, Winooski, VT, USA).
(§2) Cell viability data (% of untreated control cells) was evaluated with Microsoft Excel. Dose-response curves (using a non-linear regression model, log (inhibitor) vs response, variable slope) were generated and IC50 values were determined using Graph Pad Prism 5.02 software (GraphPad Software, San Diego, CA, USA).

Detroit 562 cell line = assay: Additional in vitro IC50 tests (Table 3); format: cell-based; settings: Homo sapiens
Protocol: as §1, §2

EBC-1 cell line = assay: Additional in vitro IC50 tests (Table 3); format: cell-based; settings: Homo sapiens
Protocol: as §1, §2

Fadu cell line = assay: Additional in vitro IC50 tests (Table 3); format: cell-based; settings: Homo sapiens
Protocol: as §1, §2

H2228 cell line = assay: Additional in vitro IC50 tests (Table 3); format: cell-based; settings: Homo sapiens, NCI-H2228
Protocol: as §1, §2

SCC-25 cell line = assay: Additional in vitro IC50 tests (Table 3); format: cell-based; settings: Homo sapiens
Protocol: as §1, §2

[2] = system: A-431 (human squamous carcinoma) cells; assay: Short term cytotoxicity, MTT assay; format: cell-based; settings: 1 h treatment then 72 h culture, read-out: cytotoxicity expressed in IC50, A-431
Protocol: (§3) For the short term cytotoxicity studies the A-431 (human squamous carcinoma) and U-87 (human primary glioblastoma) cells were cultured in RPMI-1640 medium supplemented with 10% FCS (fetal calf serum, Sigma Ltd.), 2 mM L-glutamine, and […] gentamicin. Cell cultures were maintained at 37° C. in a humidified atmosphere with 5% CO2. The cells were grown to confluency and were distributed into 96-well plate with initial cell number of 5.0×10^3 per well. After 24 h incubation at 37° C., the cells were treated with the compounds in 200 μL final volume containing 1.0 v/v % DMSO. The cells were incubated with the compounds at 10^−4-10^2 μM concentration range for 1 h. Control cells were treated with serum free medium (RPMI-1640) only or with DMSO (c=1.0 v/v %) at 37° C. for 1 h. After incubation the cells were washed twice with serum free (RPMI-1640) medium. To determine the in vitro cytostatic effect, the cells were cultured for a further 72 h in 10% serum containing medium. MTT-solution ([…], 2 mg/mL, final concentration: 0.37 mg/mL) was added to each well. The respiratory chain [26, 27] and other electron transport systems reduce MTT and thereby form non-water-soluble violet formazane crystals within the cell. […] After 4 h of incubation the cells were centrifuged for 5 min (900 g) and the supernatant was removed. The obtained formazane crystals were dissolved in DMSO ([…]) and optical density (OD) of the samples was measured at λ=540 and 620 nm, respectively, using ELISA Reader (iEMS Reader, Labsystems, Finland). OD620 values were subtracted from OD540 values. The percent of cytostasis was calculated by using the following equation: Cytostatic effect (%)=[1−(ODtreated/ODcontrol)]×100 Values ODtreated and ODcontrol correspond to the optical densities of the treated and the control cells, respectively. In each case two independent experiments were carried out with 4 parallel measurements. […] The curves were defined using Microcal™ Origin1 (version 7.5) software: cytostasis was plotted as a function of concentration, fitted to a sigmoidal curve, and based on this curve, the half maximal inhibitory concentration (IC50) value was determined.

[3] = system: U-87 (human primary glioblastoma) cells; assay: Short term cytotoxicity, MTT assay; format: cell-based; settings: 1 h treatment then 72 h culture, read-out: cytotoxicity expressed in IC50, U-87
Protocol: as §3

[4] = system: PANC-1 (human pancreatic carcinoma) cells; assay: Impedance-based viability assay (xCELLigence SP), long treatment; format: cell-based; settings: 72 h, read-out: cytotoxicity expressed in IC50, PANC-1
Source text: (Gibco®/Invitrogen Corporation, New York, NY, USA).
Data obtained from each experiment represent mathematical averages.

[5] = system: EBC-1 lung cancer cell line; assay: High-throughput screening, CellTiter-Glo cell viability assay at 100 nM; format: cell-based, human; settings: Homo sapiens, EBC-1, HTS, compounds at 100 nM, 72 h, read-out: cytotoxicity expressed in IC50, EBC-1 (results of High throughput screening)
[6] = system: H2228 lung cancer cell line; assay: as above; format: cell-based, human; settings: Homo sapiens, NCI-H2228, HTS, compounds at 100 nM, 72 h, read-out: cytotoxicity expressed in IC50, H2228 (results of High throughput screening)
[7] = system: A2058 (human metastatic melanoma) cells; assay: Colorimetric alamarBlue assay, long treatment; settings: Homo sapiens, A2058, 72 h, read-out: cytotoxicity expressed in IC50, A-2058
[8] = system: COLO-205 (human colorectal adenocarcinoma) cells; assay: Colorimetric alamarBlue assay, long treatment; settings: COLO 205, 72 h, read-out: cytotoxicity expressed in IC50, COLO-205

| IC50 [1] [nM] | IC50 (Detroit 562 cell line) [nM] | IC50 (EBC-1 cell line) [nM] | IC50 (Fadu cell line) [nM] | IC50 (H2228 cell line) [nM] | IC50 (SCC-25 cell line) [nM] | melting point [°C] | SMILES | IC50 [2] [nM] | IC50 [3] [nM] | IC50 [4] [nM] | IC50 [5] [nM] | IC50 [6] [nM] | IC50 [7] [nM] | IC50 [8] [nM] |
| --- | --- | --- | --- | --- | --- | --- | --- | --- | --- | --- | --- | --- | --- | --- |
| 300 | 84 | 29 | 22 | 104 | 89 | 129.5 | NCc1cccc(CN2C(=O)C3=C(CCN(Cc4cc(F)cc(F)c4)C3)N3CCN=C23)c1 [I/61, 4-(3-(Aminomethyl)benzyl)-7-(3,5-difluorobenzyl)-2,4,6,7,8,9-hexahydroimidazo[1,2-a]pyrido[3,4-e]pyrimidin-5(1H)-one] | – | – | – | – | – | – | – |
| – | – | – | – | – | – | – | O=C1C2=C(CCN(Cc3cccc(F)c3)C2)N2CCN=C2N1Cc1ccc(I)cc1 [I/46] | 6160 | 25000 | 25 | < 100 | ~100 | > 10000 | – |
| 265 | 120 | > 300 | 150 | 300 | > 300 | – | O=C1C2=C(CCN(Cc3cc(F)cc(F)c3)C2)N2CCN=C2N1[C@H](CO)c1ccc(F)cc1 [I/129 (S)] | – | – | – | – | – | – | – |
| – | – | – | – | – | – | – | O=C1C2=C(CCN(Cc3cccc(F)c3)C2)N2CCN=C2N1Cc1ccc(C(F)(F)F)c(F)c1 [I/31] | < 200 | > 25000 | 76.7 | < 100 | < 100 | – | – |
| – | – | – | – | – | – | – | O=C1C2=C(CCN(Cc3ccccc3F)C2)N2CCN=C2N1Cc1ccc(C(F)(F)F)c(F)c1 [I/26] | 3630 | 3510 | 920 | > 100 | > 100 | > 10000 | > 10000 |
| – | – | – | – | – | – | 204.8 | O=C1C2=C(CCN(Cc3cc(F)cc(F)c3)C2)N2CCN=C2N1Cc1cccc(Cl)c1 [I/125, 4-(3-Chlorobenzyl)-7-(3,5-difluorobenzyl)-2,4,6,7,8,9-hexahydroimidazo[1,2-a]pyrido[3,4-e]pyrimidin-5(1H)-one] | – | – | – | – | – | – | – |
| – | – | – | – | – | – | – | O=C1C2=C(CCN(Cc3ccccc3)C2)N2CCN=C2N1Cc1cc(F)c(F)c(F)c1 [I/9] | 1390 | 6020 | 2220 | – | – | > 10000 | > 10000 |
| – | – | – | – | – | – | – | O=C1C2=C(CCN(Cc3ccccc3)C2)N2CCN=C2N1Cc1cccc(F)c1 [I/8] | 7290 | > 25000 | 1420 | > 100 | > 100 | 1730 | 4960 |
| 15 | – | – | – | – | – | 76 | O=C1C2=C(CCN(Cc3cc(F)cc(F)c3)C2)N2CCN=C2N1[C@@H](CO)c1ccc(F)cc1 [I/129 (R)] | – | – | – | – | – | – | – |
| – | – | – | – | – | – | – | O=C1C2=C(CCN(Cc3ccccc3)C2)N2CCN=C2N1Cc1ccc(F)cc1 [I/5] | 3550 | > 25000 | 250 | > 100 | > 100 | 250 | 247 |
| 10 | 5 | 13 | 12 | 12 | 19 | 86 | O=C1C2=C(CCN(Cc3cc(F)cc(F)c3)C2)N2CCN=C2N1C(CO)c1ccc(Cl)cc1 (racemic) [I/128] | – | – | – | – | – | – | – |
| – | 103 | 288 | 290 | 269 | > 300 | 114.5 | Nc1cccc(CN2C(=O)C3=C(CCN(Cc4cc(F)cc(F)c4)C3)N3CCN=C23)c1 [I/126, 4-(3-Aminobenzyl)-7-(3,5-difluorobenzyl)-2,4,6,7,8,9-hexahydroimidazo[1,2-a]pyrido[3,4-e]pyrimidin-5(1H)-one] | – | – | – | – | – | – | – |
| – | – | – | – | – | – | – | O=C1C2=C(CCN(Cc3ccc(F)cc3)C2)N2CCN=C2N1Cc1ccc(C(F)(F)F)c(F)c1 [I/28] | 2660 | 17600 | 960 | > 100 | > 100 | > 10000 | 3270 |
| – | – | – | – | – | – | – | O=C1C2=C(CCN(Cc3ccc(C(F)(F)F)cc3)C2)N2CCN=C2N1Cc1ccc(C(F)(F)F)c(F)c1 [I/27] | 8950 | 5990 | 25000 | > 100 | > 100 | 12800 | 25000 |
| – | 10 | 16 | 16 | 15 | 21 | 158 | [N-]=[N+]=Nc1cccc(CN2C(=O)C3=C(CCN(Cc4cc(F)cc(F)c4)C3)N3CCN=C23)c1 [I/127, 4-(3-Azidobenzyl)-7-(3,5-difluorobenzyl)-2,4,6,7,8,9-hexahydroimidazo[1,2-a]pyrido[3,4-e]pyrimidin-5(1H)-one] | – | – | – | – | – | – | – |
| – | – | – | – | – | – | – | NCc1cccc(CN2C(=O)C3=C(CCN(Cc4cccc(F)c4)C3)N3CCN=C23)c1 [I/60] | < 200 | 416 | 430 | > 100 | > 100 | > 10000 | > 10000 |
